Here are results for eight compounds from article PMC9415646, “Improving Aqueous Solubility and In Vitro Pharmacokinetic Properties of the 3-Nitroimidazo[1,2-a]pyridine Antileishmanial Pharmacophore” (Pharmaceuticals, 2022).

Series [1] relates to T. b. brucei BSF trypomastigotes. Further details: method as in PMID 30655943. The settings on record: previously evaluated hit compounds; cited from earlier work.
Series [2] addresses T1, Albumin from human plasma (Homo sapiens, UniProt P02768).
T1 construct: from tissue; host or cells: plasma
Briefly: Plasma protein (albumin) binding. The class given is in vitro ADME. The procedure:
Plasma doped with the tested compound was incubated at 37 °C in triplicate in one of the compartments of the insert, the other compartment containing a phosphate buffer solution at pH 7.2. After stirring for 4 h at 300 rpm, a 25 μL aliquot of each compartment was taken and diluted; the dilution solution was adapted so as to obtain an identical matrix for all the compartments after dilution. Parallel, reprocessing of a plasma doped but not incubated was used to assess recovery. The LC-MS used for this study was a Waters® Acquity I-Class/Xevo TQD, equipped with a Waters® Acquity BEH C18 column, 50 × 2.1 mm, […]. The mobile phases were (A) ammonium acetate 10 mM and (B) acetonitrile with 0.1% formic acid. The injection volume was 1 µL and the flow rate 600 µL/min. Chromatographic analysis, total duration of 4 min, was performed along the following gradient: 0 < t < 0.2 min, 2% (B); 0.2 < t < 2 min, linear increase to 98% (B); 2 < t < 2.5 min, 98% (B); 2.5 < t < 2.6 min, linear decrease to 2% (B); 2.6 < t < 4 min, 2% (B). Carbamazepine, oxazepam, warfarin and diclofenac were used as reference drugs and propranolol as internal standard. The unbound fraction (fu) was calculated according to the following formula: fu=APlasma, 4h−APBS,4h/APlasma, 4h×100 . The percentage of recovery was calculated according to the following formula: % Recovery=(VPBS×APBS,4h)+(VPlasma×APlasma,4h)/(VPlasma×APlasma,0h) where A is the ratio of the area under peak of the studied molecule and the area under peak of the internal standard (propranolol 200 nM). V is the volume of solution present in the compartments (VPBS = 350 µL and Vplasma = 200 µL).

Series [3] has as its system L. infantum axenic amastigotes. The arrangement: method as in PMID 24080103, PMID 30655943. The following applies: previously identified hit compounds; cited from earlier work.
In series [4] the test system is HepG2 cell line. The arrangement: method as in PMID 24080103, PMID 30655943. The settings on record: previously identified hit compounds; cited from earlier work.
A short description of series [5]: Parallel artificial membrane permeability assay (PAMPA). The class given is in vitro ADME. The settings on record: for Papp at 4 h, 100 µM: PAMPA, pH 7.4, read-out: PAMPA GIT at pH 7.4 Pe. A general note: The PAMPA barrier holds no transporters, so it reflects passive diffusion.
Series [6] deals with THP1 cell line. The arrangement: method as in PMID 24080103, PMID 30655943. The settings on record: previously identified hit compounds; cited from earlier work.
In series [7] the test system is T. b. brucei BSF trypomastigotes. Description: Antitrypanosomal evaluation on T. b. brucei BSF trypomastigotes (Alamar Blue). The class given is cell-based. The following applies: Trypanosoma brucei, trypomastigote blood stream form. The procedure:
The effects of the tested compounds on the growth of T. b. brucei were assessed by Alamar Blue® assay described by Räz et al. T. b. brucei AnTat 1.9 (IMTA, Antwerpen, Belgium) was cultured in MEM with Earle’s salts, supplemented according to the protocol of Baltz et al. with the following modifications: 0.5 mM mercaptoethanol (Sigma Aldrich®, France), 1.5 mM L-cysteine (Sigma Aldrich®), 0.05 mM bathocuproïne sulfate (Sigma Aldrich®) and 20% heat-inactivated horse serum (Gibco®, France), at 37 °C and 5% CO2. They were incubated at an average density of 2000 parasites/100 µL in sterile 96-wells plates (Fisher®, France) with various concentrations of compounds dissolved in DMSO, in duplicate. Appropriate controls suramin, treated with sterile water, and fexinidazole, treated with DMSO on sterile water (reference drugs purchased from Sigma Aldrich, France and Fluorochem, UK) were added to each set of experiments. After a 69 h incubation period at 37 °C, 10 µL of the viability marker Alamar Blue® (Fisher, France) were then added to each well, and the plates were incubated for 5 h. The plates were read in a ENSPIRE microplate reader (PerkinElmer, Waltham, MA, USA) using an excitation wavelength of 530 nm and an emission wavelength of 590 nm. […] EC50 were calculated by nonlinear regression analysis processed on dose-response curves, using GraphPad Prism software (USA). EC50 values were calculated from three separate experiments.
For orientation: The colour change of resazurin is a common sign of viable cells or microbes.

Broadly, the EC50 is the midpoint of the concentration-response curve. The CC50 is the concentration that lowers cell viability or growth by half.

Values joined by “and” are separate entries in the source; they are usually repeats but may differ in a detail not shown here. Equal entries are not always repeated. Where two headings read alike, the source gives them in different places.

T1 sequence (P02768 25-609): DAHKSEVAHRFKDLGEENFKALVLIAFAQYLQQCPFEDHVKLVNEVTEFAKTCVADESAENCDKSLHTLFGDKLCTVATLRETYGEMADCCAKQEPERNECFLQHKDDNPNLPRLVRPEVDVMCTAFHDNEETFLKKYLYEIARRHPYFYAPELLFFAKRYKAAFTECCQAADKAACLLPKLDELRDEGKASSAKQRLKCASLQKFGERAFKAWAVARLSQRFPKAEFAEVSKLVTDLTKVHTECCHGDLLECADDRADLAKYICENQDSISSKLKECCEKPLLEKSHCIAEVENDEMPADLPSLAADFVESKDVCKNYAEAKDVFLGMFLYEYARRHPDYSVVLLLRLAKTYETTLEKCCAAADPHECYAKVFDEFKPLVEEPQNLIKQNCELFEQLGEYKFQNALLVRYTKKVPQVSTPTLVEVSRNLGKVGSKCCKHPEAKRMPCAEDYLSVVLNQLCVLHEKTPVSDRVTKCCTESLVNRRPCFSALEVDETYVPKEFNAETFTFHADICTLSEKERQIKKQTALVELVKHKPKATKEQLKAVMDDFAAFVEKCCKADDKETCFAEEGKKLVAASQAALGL

In the case of `O=[N+]([O-])c1c(CS(=O)(=O)c2ccccc2)nc2c(Br)cc(Cl)cn12` [Hit A, 8-Bromo-6-chloro-3-nitro-2-(phenylsulfonylmethyl)imidazo[1,2-a]pyridine, reference compound], the figures for the EC50 in series [1] and in series [3] were 1400 ± 400 nM and 16.4 ± 1.3 µM, respectively. In addition, the “Albumin Binding” value in series [2] is reported as 96.50%. In addition, the results for the CC50 in series [4] and in series [6] were above 15.6 µM and above 100 µM, respectively. Besides, the “PAMPA GIT at pH 7.4 Pe” value in series [5] is on record as 173.2 nm/s. The Papp at 4 h, 100 µM in series [5] was 17.3 ± 3.88 ×10⁻⁶ cm/s.
In the case of `O=[N+]([O-])c1c(CS(=O)(=O)c2ccccc2)nc2c(Sc3ccc(Cl)cc3)cc(Cl)cn12` [Hit B, reference compound], the EC50 in series [1] was 950 ± 50 nM; in series [3] it was 1.7 ± 0.3 µM. In addition, the “Albumin Binding” value in series [2] is listed as 99.95%. The CC50 in series [4] is above 100 µM; in series [6] it was above 62.5 µM. For the same compound, in series [5], the “PAMPA GIT at pH 7.4 Pe” value was 4.0 nm/s. Besides, in series [5], the Papp at 4 h, 100 µM was found to be 0.4 ± 0.06 ×10⁻⁶ cm/s.
Regarding `CSc1ccc(OCc2ncc([N+](=O)[O-])n2C)cc1` [Fexinidazole, reference compound], the midpoint of the response in series [7], the EC50, lay at 1400 ± 500 nM.
As for `O=[N+]([O-])c1c(CS(=O)(=O)c2ccc(O)cc2)nc2c(Sc3ccc(Cl)cc3)cc(Cl)cn12` [Compound 3a, 4-{[(6-Chloro-8-[(4-Chlorophenyl)thio]-3-Nitroimidazo[1,2-a]pyridin-2-yl)methyl]sulfonyl}phenol], in series [7], the EC50 worked out at 780 ± 50 nM.
The same measure, in the same setting: in the case of `O=[N+]([O-])c1c(CS(=O)(=O)c2ccc(F)cc2)nc2c(Sc3ccc(Cl)cc3)cc(Cl)cn12` [Compound 3c, 6-Chloro-8-[(4-Chlorophenyl)thio]-2-[(4-Fluorophenylsulfonyl)methyl]-3-Nitroimidazo[1,2-a]pyridine] it was 570 ± 20 nM.
For `O=[N+]([O-])c1c(CS(=O)(=O)CCC(F)(F)F)nc2c(-c3ccncc3)cc(Cl)cn12` [Compound 7, 6-Chloro-3-Nitro-8-(Pyridin-4-yl)-2-[(3,3,3-Trifluoropropylsulfonyl)methyl]imidazo[1,2-a]pyridine], the “Albumin Binding” value in series [2] was 88.6% and 88.65%. Besides, in series [5], the Papp at 4 h, 100 µM amounted to 31.4 ± 8.72 ×10⁻⁶ cm/s.
Consider `O=[N+]([O-])c1c(CS(=O)(=O)c2ccc(C(F)(F)F)cc2)nc2c(Sc3ccc(Cl)cc3)cc(Cl)cn12` [Compound 3d, 6-Chloro-8-[(4-Chlorophenyl)thio]-3-Nitro-2-[(4-Trifluoromethylphenylsulfonyl)methyl]imidazo[1,2-a]pyridine], for which a half-maximal effect in series [7] (EC50) was put at 890 ± 70 nM.
Turning to `O=[N+]([O-])c1c(CS(=O)(=O)CCC(F)(F)F)nc2c(Sc3ccc(Cl)cc3)cc(Cl)cn12` [Compound 3i, 6-Chloro-8-[(4-Chlorophenyl)thio]-3-Nitro-2-[(3,3,3-Trifluoropropylsulfonyl)methyl]imidazo[1,2-a]pyridine], in series [2], the “Albumin Binding” value is 99.8% and 99.76%. In series [5], the “PAMPA GIT at pH 7.4 Pe” value turned out to be 6.3 nm/s and the Papp at 4 h, 100 µM turned out to be 0.63 ± 0.08 ×10⁻⁶ cm/s.
